Values quoted from earlier work, collected in patent publication US9173940B1, “Mixture of betamethasone and tranilast with a transdermal gel for scar treatment” (PROFESSIONAL COMPOUNDING CENTERS OF AMERICA (PCCA), priority 2014, dated 2015).

Settings: taken orally

oral absorption: well-absorbed
SMILES: COc1ccc(/C=C/C(=O)Nc2ccccc2C(=O)O)cc1OC [Tranilast]
